Source: US20060127980A1, “Human excitatory amino acid transporter-2 gene promoter and uses thereof” (priority 2003, published 2006)

Assays:
Format in all cases: cell-based, human
[1] = test system: hEAAT2 promoter activity, mRNA levels and protein levels; test: Pathway-specific inhibitors on modulated hEAAT2 promoter activity, mRNA and protein in PHFA; settings: PDTC 100 μM, PD 50 μM; for effect on EGF (or TGF-α) enhancement of hEAAT2 promoter activity, mRNA and protein levels: EGF 30 ng/ml; for effect on EGF (or TGF-α) enhancement of hEAAT2 promoter activity, mRNA and protein levels / effect on bromo-cAMP (or dbcAMP) enhancement of hEAAT2 expression: KT5720 5 μM, AG1478 1 μM, wortmannin 100 nM; for effect on bromo-cAMP (or dbcAMP) enhancement of hEAAT2 expression: bromo-cAMP 250 μM
Protocol: (§1) FIG. 5A-E. Effect of pharmacological inhibitors on hEAAT2 promoter activity, and mRNA and protein expression in PHFA following various treatment protocols. A. hEAAT2 promoter activity in PHFA, either untreated (−) or treated with EGF (30 ng/ml), in the absence (−) or presence (+) of KT5720 (5 μM), AG1478 (1 μM), PDTC (100 μM), wortmannin (WRT) (100 nM) or PD98049 (PD) (50 μM). B. hEAAT2 promoter activity in PHFA, either untreated (−) or treated with bromo-cAMP (250 μM) in the absence (−) or presence (+) of KT5720 (5 μM), AG1478 (1 μM), PDTC (100 μM), wortmannin (WRT) (100 nM) or PD98049 (PD) (50 μM). C. hEAAT2 promoter activity in PHFA, either untreated (−) or treated with TNF-α (200 U/ml), in the absence (−) or presence (+) of KT5720 (5 μM), AG1478 (1 μM), PDTC (100 μM), wortmannin (WRT) (100 nM) or PD98049 (PD) (50 μM). D. The effect of the various treatment protocols on hEAAT2 and GAPDH mRNA levels. Upper panel presents relative hEAAT2 RNA expression versus GAPDH expression relative to control untreated or treated samples based on scanning of autoradiograms. Lower panel, actual Northern blots. E. The effect of the various treatment protocols on EAAT2 and ACTIN protein levels. Upper panel presents relative EAAT2 protein expression versus ACTIN expression relative to control untreated or treated samples based on scanning of autoradiograms. Individual experiments were performed 3 times using triplicate samples and S.D. from the mean is presented.
Biochemical Basis for Positive and Negative Regulation of hEAAT2 Expression in PHFA. To define the biochemical pathways relevant to the regulation of hEAAT2 expression in PHFA resulting from the different treatment protocols, a pharmacological approach was employed. This involved the use of well-characterized pathway-specific inhibitors and determining effects on hEAAT2 promoter activity, mRNA levels and protein levels (FIG. 5). The inhibitors included, KT5720 (a protein kinase A. (PKA) inhibitor), AG1478 (a tyrosine kinase inhibitor), worttnannin (a phosphatidylinositol 3-kinase (PI-3K) inhibitor), pyrrolidinedithiocarbamate (PDTC, an inhibitor of NF-κB activation) and PD98059 (a mitogen-activated kinase (MEK1/MEK2) inhibitor) (Zelenaia et al., 2000, Mol Pharmacol 57(4):667-678).

hEAAT2 mRNA = test: Northern blot of hEAAT2 mRNA in PHFA treated with modulators; settings: for hEAAT2 mRNA expression: 7-day treatment, EGF 30 ng/ml, TGF-α 30 ng/ml, dbcAMP 200 μM, bromo-cAMP 100 μM, TNF-α 200 U/ml
Protocol: (§2) FIG. 4A-D. Effect of modulators of hEAAT2 activity on hEAAT2 expression and hEAAT2 promoter activity in PHFA. A. A Northern analysis of hEAAT2 and GAPDH mRNA expression following treatment with EGF (30 ng/ml), TGF-α (30 ng/ml), dbcAMP (200 μM, bromo-cAMP (100 μM) or TNF-α (200 U/ml) for 7 days. B. Nuclear run-on assays determining the relative rates of hEAAT2 and GAPDH transcription as a function of 7-day treatment with the same concentrations of the indicated agents. C. A time course of mRNA expression of hEAAT2 and GAPDH following treatment with EGF, bromo-cAMP or TNF-α (same concentrations as in A.). D. Fold luciferase activity in PHFA transfected with flhEAAT2Prom-luc or various deletion mutants of hEAAT2 and non-transfected controls treated with the indicated compounds for four days.
(§3) Northern and Western Blotting Assays. Total cellular RNA was isolated by the guanidinium/phenol extraction method and Northern blotting was performed as described (Huang et al., 2001, Oncogene 20(48):7051-7063; Su et al., 2000, Oncogene 19(30):3411-3421; Su et al., 2001, Nucleic Acids Res 29(8):1661-1671). Western blotting assays were performed as described (Su et al., 1998, Proc Natl Acad Sci USA 95(24):14400-14405; Su et al., 2002, Oncogene 21(22):3592-602).
Positive and Negative Regulation of hEAAT2 Transcription, Promoter Activity and mRNA Levels in PHFA. Several enhancers of GLT-1 expression in rat astrocytes have been identified, including epidermal growth factor (EGF), transforming growth factor-α (TGF-α) and dibutyryl cyclic AMP (dbcAMP) (Swanson et al., 1997, J Neurosci 17(3):932-940; Zelenaia et al., 2000, Mol Pharmacol 57(4):667-678). Based on these considerations, experiments were performed to determine if these agents similarly modify human hEAAT2 expression in PHFA. Consistent with previous observations in rat astrocytes, 7-day treatment with EGF, TGF-α, and two analogs of cAMP, dbcAMP and bromo-cAMP, stimulated hEAAT2 mRNA expression in PHFA, whereas TNF-α decreased expression (FIG. 4B). […] In contrast, TNF-α decreased expression by 48 h (FIG. 4C).

hEAAT2 transcription = test: Nuclear run-on assay of hEAAT2 transcription in PHFA; settings: 7-day treatment
Protocol: as §2
Primer Extension Analysis and Nuclear Run-on Assays. Primer extension assays were performed as described (Su et al., 2000, Oncogene 19(30):3411-3421). A primer with the sequence 5′-[…]-3′ (SEQ ID NO:6) complementary to the 5′ UTR of the hEAAT2 cDNA was used for this assay. Nuclear run-on assays were performed as described (Su et al., 1997, Proc Natl Acad Sci USA 94(17):9125-9130).
To examine whether stimulation of hEAAT2 expression involves transcriptional changes, nuclear run-on assays were performed.

hEAAT2 protein = test: Western blot of EAAT2 protein in PHFA
Protocol: as §1, §3

hEAAT2 promoter = test: flhEAAT2Prom-luc and deletion mutant luciferase reporter assay in PHFA treated with modulators; settings: deletion mutant; for stimulation of promoter activity after deletion of bp −2426 to bp −703 / upregulation of promoter activity after deletion of bp −703 to bp −326: four day treatment
Protocol: as §2
Construction of hEAAT2 Promoter Deletion Mutants and Performance of the Luciferase Assays. 5′-deletion mutants of the hEAAT2 promoter were made with exonuclease III digestion using the Erase-A-Base System (Promega) as described for the PEG-3 promoter (Su et al., 2000, Oncogene 19(30):3411-3421). The flhEAAT2Prom-luc and flhEAAT2Prom-luc deletion mutants were cloned into the pGL3-basic luciferase reporter vector (Promega) and luciferase reporter assays were performed as described (Su et al., 2000, Oncogene 19(30):3411-3421; Su et al., 2001, Nucleic Acids Res 29(8):1661-1671), except that instead of using lipofectamine, which was toxic to PHFA, the calcium phosphate precipitation transfection technique was used (Babiss et al., 1986, Proc Natl Acad Sci USA 83(7):2167-2171).
Preferential Expression of the hEAAT2 Promoter in PHFA and Deletion Analysis of the hEAAT2 Promoter. hEAAT2 is expressed in brain-derived cells, mainly astrocytes (Tanaka et al., 1997, Science 276(5319):1699-1702; Anderson et al., 2000, Glia 32(1):1-14). Experiments were performed to confirm hEAAT2 promoter activity in normal human astrocytes and to determine expression levels in other cell types (FIG. 2A). Primary early passage and established human normal and tumor cell lines were co-transfected with a putative full-length ˜2.5 kb hEAAT2 promoter, a SacII fragment extending from bp −2426 to bp +44, was cloned into the pGL3-basic vector (Promega), where it drove expression of the firefly luciferase (luc) gene, and a pSV-β-galactosidase expression plasmid. Relative fold expression of a full length hEAAT2 promoter-luciferase (flhEAAT2Prom-luc) construct was determined as described (Su et al., 2000, Oncogene 19(30):3411-3421; Su et al., 2001, Nucleic Acids Res 29(8):1661-1671), and activity versus transfection with a pSV-β-galactosidase plasmid was calculated as described (Su et al., 2000, Oncogene 19(30):3411-3421; Su et al., 2001, Nucleic Acids Res 29(8):1661-1671) to equalize for differences in transfection efficiency.
To examine further the relationship between hEAAT2 and treatment with the various glutamate transporter modulators, transient transfection assays were performed in PHFA using the flhEAAT2Prom-luc constructs and various deletions thereof (FIG. 4D). […] In the case of dbcAMP, promoter activity was enhanced by ˜3-fold.

Compound | effect on EGF (or TGF-α) enhancement of hEAAT2 promoter activity, mRNA and protein levels [1] | effect on bromo-cAMP (or dbcAMP) enhancement of hEAAT2 expression [1] | effect on TNF-α-decreased hEAAT2 promoter, mRNA and protein levels ([1]; cotreatment with TNF-α 200 U/ml) | hEAAT2 mRNA expression (hEAAT2 mRNA) | time of highest (maximum) hEAAT2 mRNA upregulation (hEAAT2 mRNA; time course) [h] | time by which hEAAT2 mRNA expression was changed (hEAAT2 mRNA; time course, bromo-cAMP enhanced, TNF-α decreased) [h] | relative rate of transcription of hEAAT2 RNA compared with GAPDH (hEAAT2 transcription) | hEAAT2 protein levels (hEAAT2 protein) | stimulation of promoter activity after deletion of bp −2426 to bp −703 (hEAAT2 promoter) | upregulation of promoter activity after deletion of bp −703 to bp −326 (hEAAT2 promoter) | promoter activity after further deletion of bp −326 to bp −120 (hEAAT2 promoter)
COc1cc2ncnc(Nc3cccc(Cl)c3)c2cc1OC [AG1478] | abolished | unaffected |  |  |  |  |  |  |  |  | 
CCCCCCOC(=O)[C@]1(O)C[C@@H]2O[C@@]1(C)n1c3ccccc3c3c4c(c5c6ccccc6n2c5c31)C(=O)NC4 [KT5720] | unaffected | eliminated |  |  |  |  |  |  |  |  | 
COc1cccc(-c2cc(=O)c3ccccc3o2)c1N [PD98059] | significantly inhibited but not extinguished | partially inhibited | partial restoration of normal levels of hEAAT2 protein |  |  |  |  |  |  |  | 
Nc1ncnc2c1nc(Br)n2[C@@H]1O[C@@H]2COP(=O)(O)O[C@H]2[C@H]1O [bromo-cAMP] |  |  |  | stimulated | 48 | ≤ 24 | elevated | upregulated | did not significantly decrease | most relevant | 
EGF: epidermal growth factor, from Invitrogen |  |  |  | stimulated | 48 |  | elevated | upregulated | did not significantly decrease | a level approximating that found in uninduced PHFA | did not result in any additional reduction
TGF-α: transforming growth factor-α, from Invitrogen |  |  |  | stimulated |  |  | elevated | upregulated | did not significantly decrease | a level approximating that found in uninduced PHFA | did not result in any additional reduction
